According to paper PMC9352109, “Novel silkworm (Bombyx mori) sulfotransferase swSULT ST3 is involved in metabolism of polyphenols from mulberry leaves” (PLoS ONE, 2022):

Target: T1, AKR2E8 (Bombyx mori, UniProt A0A8D5RRY4)
T1 sequence (A0A8D5RRY4 1-331 limits assumed): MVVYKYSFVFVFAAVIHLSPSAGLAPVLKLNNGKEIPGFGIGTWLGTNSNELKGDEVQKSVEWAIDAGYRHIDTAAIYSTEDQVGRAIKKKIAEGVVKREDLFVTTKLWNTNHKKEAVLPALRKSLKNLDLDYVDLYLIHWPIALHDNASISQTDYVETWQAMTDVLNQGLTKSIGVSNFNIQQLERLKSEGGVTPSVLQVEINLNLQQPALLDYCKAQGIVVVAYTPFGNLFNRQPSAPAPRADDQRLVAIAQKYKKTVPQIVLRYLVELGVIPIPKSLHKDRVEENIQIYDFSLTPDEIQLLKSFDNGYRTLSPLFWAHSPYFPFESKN
Assay: NADPH-linked benzaldehyde reduction
Assay type: biochemical
Settings: 0.1 mM NADPH, 25 μM benzaldehyde, 0.1 M potassium phosphate pH 7.4
Excerpt: NADPH-linked benzaldehyde reduction on AKR2E8

Row | IC50 | SMILES
1 | 170 ± 10 nM | O=c1cc(-c2ccc(O)cc2)oc2cc(O)cc(O)c12 [Apigenin]
2 | 34 ± 2.7 nM | O=c1c(-c2ccc(O)cc2)coc2cc(O)ccc12 [Daidzein]
3 | 18 ± 1.4 nM | O=c1c(-c2ccc(O)cc2)coc2cc(O)cc(O)c12 [Genistein]
4 | 460 ± 120 nM | O=c1c(O)c(-c2ccc(O)cc2)oc2cc(O)cc(O)c12 [Kaempferol]
5 | 550 ± 23 nM | Oc1ccc(/C=C/c2cc(O)cc(O)c2)cc1 [Resveratrol]

Row | SMILES | IC50
6 | O=c1c(O)c(-c2ccc(O)c(O)c2)oc2cc(O)cc(O)c12 [Quercetin] | 65 ± 1.8 nM
